Reference: patent publication US7040746B2, “Inkjet ink having yellow dye mixture” (Lexmark International, Inc., priority 2003, dated 2006)

Legend:
Format in all cases: physicochemical
[1] = Aqueous solubility of dye
[2] = CIELAB color data and optical density of printed ink patches (Gretag-McBeth Spectolino/Spectrascan); conditions: dye alone in ink
Source text: CIELAB Color System-Space: The CIELAB color system was established by the Commission Internationale de l'Eclairage (CIE) in 1976. It is color space to be used for the specification of color differences. The L* is a correlate to perceived lightness ranging from 0.0 for black to 100.0 for a diffuse white. The a* and b* dimensions correlate approximately with red-green and yellow-blue chroma perceptions. They take on both negative and positive values. Their maximum values are limited by the physical properties of materials. The color difference (ΔE*ab) between two color points. (L*[…]) and (L*2, a*2, b2), is defined by the distance between the two points and computed by ΔE*ab=[(L*2−L*1)^2+(a*2−a*1)^2+(b*2−b*1)^2]^1/2
The cylindrical coordinate system provides predictors of lightness. L*, chroma, C*, and hue, H*. The chroma correlates the colorfulness of an area and the hue correlates the types of colors such as red, green, blue, yellow, etc. The relationship among a*, b*, C* and H* is given by C*=[a*2+b*2]^1/2 H*=tan^−1(b*/a*) a*=C* cos(H*) b*=C* sin(H*)
(§1) The color data was collected on a Gretag-McBeth Spectolino/Spectrascan with 100% coverage patches printed on Kodak Premium Photo Paper. Permanence was evaluated by measuring the relative fade of 0.6 OD yellow block printed on Ilford Printasia Glossy Photo Paper after 504 hours of exposure to 43-kLux cool white fluorescent illumination.

[3] = Permanence: relative fade of 0.6 OD yellow block under fluorescent illumination; conditions: dye alone in ink; for permanence (relative fade): 0.6 OD block on Ilford Printasia Glossy Photo Paper, 504 hours, 43-kLux cool white fluorescent, higher = more fade
Description: as §1

[4] = 3% by weight, Kodak Premium Photo Paper

aqueous solubility [1] [%]	H* (hue) ([2]; 3% by weight)	a* ([2]; 3% by weight)	b* ([2]; 3% by weight)	optical density ([2]; 3% by weight)	C* (chroma) [2, 4]	lightfastness / permanence (in words) ([3]; 3% by weight)	permanence (relative fade) ([3]; 3% by weight) [%]	C* (chroma) ([2]; 3.4% by weight)	H* (hue) ([2]; 3.4% by weight)	a* ([2]; 3.4% by weight)	b* ([2]; 3.4% by weight)	optical density ([2]; 3.4% by weight)	permanence (relative fade) ([3]; 3.4% by weight) [%]	Compound
40	89.5	1.0	110.3	1.5	110.3	extremely poor lightfastness	86.6							O=C([O-])C1=NN(c2ccc(S(=O)(=O)[O-])cc2)C(=O)C1N=Nc1ccc(S(=O)(=O)[O-])cc1.[Na+].[Na+].[Na+] (centres unmarked) [Acid Yellow 23, reference compound]
19	96.3	−10.8	92.6	1.3	93.2	much better permanence	27.9							Acid Yellow 17
13								106.7	86.9	5.9	106.3	1.7	18	Direct Yellow 132
